Measured values from PMC12155888, “Design, Synthesis, and Antitumor Biological Evaluation of Galaxamide and Its Analogs” (Molecules, 2025).
Values after ≈ are worked out from the molar mass of the structure shown. Values joined by “and” are separate entries in the source; they are usually repeats but may differ in a detail not shown here. Equal values may be shown once. Read-outs that look alike come from different tables or passages of the source. Where a SMILES comes first, the peptide text is derived from it. [ ]: non-standard residue; d: D form. dChg = N[C@@H](C(=O)O)C1CCCCC1; dPhg = N[C@@H](C(=O)O)c1ccccc1; NMeL = CN[C@@H](CC(C)C)C(=O)O; dNMeL = CN[C@H](CC(C)C)C(=O)O

Experiments:
[1] = system: human renal cell carcinoma GRC-1; design: method as in PMID 18816120; conditions: human renal cell carcinoma GRC-1 cell line; cited from earlier work
293T = assay type: cell-based, human; conditions: 48 h
Description: (§1) Since the antitumor activity of natural galaxamide is good, we are interested in the antitumor potential of the obtained new analogs. To examine the anticancer activities of galaxamide and its analogs, two different human cancer cell lines, human non-small-cell lung cancer cells (A549) and human chronic myelogenous leukemia (K562), and one normal human cell line, human immortal embryonic kidney cells (293T), were selected for the in vitro cell models. […] The synthetic galaxamide (Gala01) was also tested as the standard. […] It was also found […] the best selectivity and highest safety and is thus worthy of further development for anticancer drugs for K562. A549, K562, and 293T cells were purchased from the Cell Resource Center of the Institute of Basic Medicine, Chinese Academy of Medical Sciences. Both A549 cells and K562 cells were cultured in RPMI (full name: Roswell Park Memorial Institute) 1640 medium containing 10% FBS (full name: fetal bovine serum, product number: C04001-500, Vivacell, Shanghai, China) and 1% p/s (full name: penicillin-streptomycin, product number: 15140122, Gbico, Waltham, MA, USA) for culture. The 293T cells were all cultured in DMEM (full name: Dulbecco's Modified Eagle Medium; cat. no.: C3113-0500, Vivacell, ShanghaiChina; containing 10% FBS and 1% p/s) for cultivation. […] Multiple types of cells were seeded into 96-well plates and treated with different concentrations of […]26 for 48 h after they returned to normal. Then, the relative activity of the cells was detected according to the instructions of the CCK-8 kit (item number: MA0218, Meilunbio, Dalian, China) and analyzed and calculated using GraphPad Prism 8.0.1 software.

A549 = assay type: cell-based, human
Description: as §1

K562 = assay type: cell-based, human
Protocol: To examine the anticancer activities of galaxamide and its analogs, two different human cancer cell lines, human non-small-cell lung cancer cells (A549) and human chronic myelogenous leukemia (K562), and one normal human cell line, human immortal embryonic kidney cells (293T), were selected for the in vitro cell models. […] The synthetic galaxamide (Gala01) was also tested as the standard. […] A549, K562, and 293T cells were purchased from the Cell Resource Center of the Institute of Basic Medicine, Chinese Academy of Medical Sciences. Both A549 cells and K562 cells were cultured in RPMI (full name: Roswell Park Memorial Institute) 1640 medium containing 10% FBS (full name: fetal bovine serum, product number: C04001-500, Vivacell, Shanghai, China) and 1% p/s (full name: penicillin-streptomycin, product number: 15140122, Gbico, Waltham, MA, USA) for culture. The 293T cells were all cultured in DMEM (full name: Dulbecco's Modified Eagle Medium; cat. no.: C3113-0500, Vivacell, ShanghaiChina; containing 10% FBS and 1% p/s) for cultivation. […] Multiple types of cells were seeded into 96-well plates and treated with different concentrations of […]26 for 48 h after they returned to normal. Then, the relative activity of the cells was detected according to the instructions of the CCK-8 kit (item number: MA0218, Meilunbio, Dalian, China) and analyzed and calculated using GraphPad Prism 8.0.1 software.

[2] = system: human hepatocellular carcinoma Hep G2; design: method as in PMID 18816120; conditions: human hepatocellular carcinoma Hep G2 cell line; cited from earlier work
[3] = normal human embryonic kidney cells 293T, CCK-8, NA = not determined due to low inhibitory activity, read-out: IC50 293T
[4] = human non-small-cell lung cancer cells A549, 48 h, CCK-8, unit given in the text, not in Table 2, read-out: IC50 A549
[5] = human chronic myelogenous leukemia K562, 48 h, CCK-8, unit given in the text, not in Table 2, read-out: IC50 K562

Row | Compound | IC50 (A549; [4]) | IC50 (K562; [5]) | IC50 (A549; 48 h) | IC50 (K562; 48 h) | also measured
1 | CC(C)C[C@@H]1C(=O)N[C@H](CC(C)C)C(=O)N[C@H](CC(C)C)C(=O)N(C)[C@H](CC(C)C)C(=O)N[C@H](CC(C)C)C(=O)N1C [Gala01, Cyclo(Me-D-Leu-D-Leu-D-Leu-Me-D-Leu-D-Leu)] (cyclo([dL][dL][dNMeL][dL][dNMeL])) | 14 µM | > 80 µM | – | – | IC50 GRC-1 [1]: 4.26 µg/mL (≈ 7.17 µM); IC50 (293T; [3]): 19.9 µM; IC50 Hep G2 [2]: 4.63 µg/mL (≈ 7.8 µM)
2 | CC(C)C[C@@H]1NC(=O)[C@H](CC(C)C)N(C)C(=O)[C@H](CC(C)C)NC(=O)[C@H](CC(C)C)N(C)C(=O)[C@@H](CC(C)C)NC1=O [Gala02, Cyclo(Me-L-Leu-L-Leu-D-Leu-Me-L-Leu-L-Leu)] (cyclo(L[NMeL]L[dL][NMeL])) | > 20 µM | 8.6 µM | – | – | –
3 | CC(C)C[C@@H]1NC(=O)[C@@H](CC(C)C)N(C)C(=O)[C@H](CC(C)C)NC(=O)[C@@H](CC(C)C)N(C)C(=O)[C@H](CC(C)C)NC1=O [Gala03, Cyclo(Me-D-Leu-L-Leu-L-Leu-Me-D-Leu-L-Leu)] (cyclo(LL[dNMeL]L[dNMeL])) | > 20 µM | > 80 µM | – | – | –
4 | CC(C)C[C@@H]1NC(=O)[C@@H](CC(C)C)N(C)C(=O)[C@H](CC(C)C)NC(=O)[C@@H](CC(C)C)N(C)C(=O)[C@@H](CC(C)C)NC1=O [Gala04, Cyclo(Me-D-Leu-L-Leu-D-Leu-Me-D-Leu-L-Leu)] (cyclo(L[dL][dNMeL]L[dNMeL])) | 19 µM | 4.19 µM and 4.2 µM | – | – | IC50 (293T; [3]): 16.3 µM
5 | CC(C)C[C@@H]1NC(=O)[C@@H](CC(C)C)NC(=O)[C@H](CC(C)C)N(C)C(=O)[C@@H](CC(C)C)NC(=O)[C@H](CC(C)C)N(C)C1=O [Gala05, Cyclo(Me-L-Leu-D-Leu-L-Leu-Me-L-Leu-D-Leu)] (cyclo(L[NMeL][dL][NMeL][dL])) | > 20 µM | 10.2 µM | – | – | –
6 | CC(C)C[C@H]1NC(=O)[C@H](CC(C)C)N(C)C(=O)[C@@H](CC(C)C)NC(=O)[C@H](CC(C)C)N(C)C(=O)[C@@H](CC(C)C)NC1=O [Gala06, Cyclo(Me-L-Leu-D-Leu-D-Leu-Me-L-Leu-D-Leu)] (cyclo([NMeL][dL][NMeL][dL][dL])) | > 20 µM | 28.8 µM | – | – | –
7 | CC(C)C[C@@H]1NC(=O)[C@@H](CC(C)C)NC(=O)[C@@H](CC(C)C)N(C)C(=O)[C@@H](CC(C)C)NC(=O)[C@@H](CC(C)C)N(C)C1=O [Gala07, Cyclo(Me-D-Leu-D-Leu-L-Leu-Me-D-Leu-D-Leu)] (cyclo(L[dNMeL][dL][dNMeL][dL])) | > 20 µM | > 80 µM | – | – | –
8 | CC(C)C[C@@H]1NC(=O)[C@H](CC(C)C)N(C)C(=O)[C@H](CC(C)C)NC(=O)[C@H](CC(C)C)N(C)C(=O)[C@@H](Cc2ccccc2)NC1=O [Gala09, Cyclo(Me-L-Leu-L-Leu-D-Phe-Me-L-Leu-L-Leu)] | – | – | > 20 µM | 14.9 µM | –
9 | CC(C)C[C@@H]1NC(=O)[C@H](CC(C)C)N(C)C(=O)[C@H](CC(C)C)NC(=O)[C@H](CC(C)C)N(C)C(=O)CNC1=O [Gala10, Cyclo(Me-L-Leu-L-Leu-Gly-Me-L-Leu-L-Leu)] (cyclo([NMeL]LG[NMeL]L)) | – | – | > 20 µM | 27.2 µM | –
10 | CC(C)C[C@@H]1NC(=O)[C@H](CC(C)C)N(C)C(=O)[C@H](CC(C)C)NC(=O)[C@H](CC(C)C)N(C)C(=O)[C@@H](C)NC1=O [Gala11, Cyclo(Me-L-Leu-L-Leu-D-Ala-Me-L-Leu-L-Leu)] (cyclo([NMeL]L[dA][NMeL]L)) | – | – | – | 33.8 µM | IC50 (293T): 13.3 µM
11 | COC[C@H]1NC(=O)[C@H](CC(C)C)NC(=O)[C@H](CC(C)C)N(C)C(=O)[C@H](CC(C)C)NC(=O)[C@H](CC(C)C)N(C)C1=O [Gala12, Cyclo(Me-L-Leu-L-Leu-O-Me-D-Ser-Me-L-Leu-L-Leu)] (cyclo(L[NMeL]L[dS](Me)[NMeL])) | – | – | – | 61.8 µM | IC50 (293T): 14.1 µM
12 | COc1ccc(C[C@H]2NC(=O)[C@H](CC(C)C)NC(=O)[C@H](CC(C)C)N(C)C(=O)[C@H](CC(C)C)NC(=O)[C@H](CC(C)C)N(C)C2=O)cc1 [Gala13, Cyclo(Me-L-Leu-L-Leu-O-Tyr-Me-L-Leu-L-Leu)] (cyclo(L[NMeL]L[dY](Me)[NMeL])) | – | – | > 20 µM | > 80 µM | –
13 | COC(=O)C[C@H]1NC(=O)[C@H](CC(C)C)NC(=O)[C@H](CC(C)C)N(C)C(=O)[C@H](CC(C)C)NC(=O)[C@H](CC(C)C)N(C)C1=O [Gala14, Cyclo(Me-L-Leu-L-Leu-Methylester-D-Asp-Me-L-Leu-L-Leu)] (cyclo(L[NMeL]L[dD](OMe)[NMeL])) | – | – | 20 µM | 29.6 µM | IC50 (293T): 22.2 µM
14 | CC(C)C[C@@H]1NC(=O)[C@H](CC(C)C)N(C)C(=O)[C@H](CC(C)C)NC(=O)[C@H](CC(C)C)N(C)C(=O)[C@@H](Cc2cccc(F)c2)NC1=O [Gala15, Cyclo(Me-L-Leu-L-Leu-3-Flu-D-Phe-Me-L-Leu-L-Leu)] | – | – | > 20 µM | 13 µM | –
15 | Cc1ccccc1C[C@H]1NC(=O)[C@H](CC(C)C)NC(=O)[C@H](CC(C)C)N(C)C(=O)[C@H](CC(C)C)NC(=O)[C@H](CC(C)C)N(C)C1=O [Gala16, Cyclo(Me-L-Leu-L-Leu-2-Me-D-Phe-Me-L-Leu-L-Leu)] | – | – | > 20 µM | > 80 µM | –
16 | CC(C)C[C@@H]1NC(=O)[C@H](CC(C)C)N(C)C(=O)[C@H](CC(C)C)NC(=O)[C@H](CC(C)C)N(C)C(=O)[C@@H](Cc2ccc(Cl)cc2)NC1=O [Gala17, Cyclo(Me-L-Leu-L-Leu-4-Chl-D-Phe-Me-L-Leu-L-Leu)] | – | – | > 20 µM | 77.7 µM | –
17 | CC(C)C[C@@H]1NC(=O)[C@H](CC(C)C)N(C)C(=O)[C@H](CC(C)C)NC(=O)[C@H](CC(C)C)N(C)C(=O)[C@@H](Cc2ccc(Br)cc2)NC1=O [Gala18, Cyclo(Me-L-Leu-L-Leu-4-Bro-D-Phe-Me-L-Leu-L-Leu)] | – | – | – | 24.2 µM | IC50 (293T): 14.1 µM
18 | CC(C)C[C@@H]1NC(=O)[C@H](CC(C)C)N(C)C(=O)[C@H](CC(C)C)NC(=O)[C@H](CC(C)C)N(C)C(=O)[C@@H](C2CCCCC2)NC1=O [Gala19, Cyclo(Me-L-Leu-L-Leu-D-cyclohexyl-Gly-Me-L-Leu-L-Leu)] (cyclo(L[NMeL]L[dChg][NMeL])) | – | – | > 20 µM | 75.2 µM | –
19 | CC(C)C[C@@H]1NC(=O)[C@H](CC(C)C)N(C)C(=O)[C@H](CC(C)C)NC(=O)[C@H](CC(C)C)N(C)C(=O)[C@@H](c2ccccc2)NC1=O [Gala20, Cyclo(Me-L-Leu-L-Leu-D-phenyl-Gly-Me-L-Leu-L-Leu)] (cyclo(L[NMeL]L[dPhg][NMeL])) | – | – | > 20 µM | > 80 µM | –
20 | CC(C)C[C@@H]1NC(=O)[C@H](CC(C)C)N(C)C(=O)[C@H](CC(C)C)NC(=O)[C@H](CC(C)C)N(C)C(=O)[C@@H](C(C)C)NC1=O [Gala21, Cyclo(Me-L-Leu-L-Leu-D-Val-Me-L-Leu-L-Leu)] (cyclo([NMeL]L[dV][NMeL]L)) | – | – | > 20 µM | 49.3 µM | –
21 | CSCC[C@H]1NC(=O)[C@H](CC(C)C)NC(=O)[C@H](CC(C)C)N(C)C(=O)[C@H](CC(C)C)NC(=O)[C@H](CC(C)C)N(C)C1=O [Gala22, Cyclo(Me-L-Leu-L-Leu-D-Met-Me-L-Leu-L-Leu)] (cyclo(L[NMeL]L[dM][NMeL])) | – | – | – | 8.5 µM | IC50 (293T): 12.9 µM
22 | Cc1cccc(C[C@H]2NC(=O)[C@H](CC(C)C)NC(=O)[C@H](CC(C)C)N(C)C(=O)[C@H](CC(C)C)NC(=O)[C@H](CC(C)C)N(C)C2=O)c1 [Gala23, Cyclo(Me-L-Leu-L-Leu-3-Me-D-Phe-Me-L-Leu-L-Leu)] | – | – | > 20 µM | 6.9 µM | –
23 | (−)-β-elemene [reference compound] | > 100 µM | > 100 µM | – | – | IC50 (293T; [3]): > 100 µM
